In assay [1] the target is T1, human S1P1 (EDG1) receptor (Homo sapiens, UniProt P21453).
T1 construct: host or cells: U2OS (Tango EDG1-bla U2OS)
The experiment in a line: S1P1 β-arrestin recruitment (Tango) assay to determine EC50 values. Format: cell-based. The note with it: Tango-EDG1 bla U2OS cells, 16 h incubation. From the text: S1P1 β-Arrestin Recruitment (Tango) Assay to Determine EC50 Values
Upon ligand activation, G protein-coupled receptors (GPCR) trigger two pathways that independently transduce signals to the cell: one through heterotrimeric GTP-binding proteins (G proteins) and one through β-arrestins. Agonist-induced GPCRs recruit β-arrestin proteins, which then bind to the carboxy-terminal domain of ligand-activated GPCRs. The amount of β-arrestin recruitment can be used to assess the potency and efficacy of GPCR activating ligands.
To measure the potency and efficacy of compounds as S1P1 (EDG1) receptor agonists, Tango™-EDG1 bla U2OS cells (Invitrogen, USA, Catalog #K1520) are used. The Tango™ GPCR technology is based on GeneBLAzer β-lactamase reporter cell assays, which uses a mammalian-optimized β-lactamase reporter gene (bla) combined with a FRET-enabled substrate. The host cells, U2OS, stably express a human S1P1 (EDG1) receptor/transcription factor (TF) fusion protein. The cells also express a recombinant protease tagged β-arrestin protein, which is recruited to the S1P1 receptor upon ligand stimulation and specifically cleaves the S1P1-TF fusion protein. The released TF activates the β-lactamase (bla) reporter gene. To measure the reporter gene activity, cells are loaded with a fluorescent substrate containing two chemically coupled fluorophores, coumarin and fluorescein. […] In the presence of bla, the chemical bond is cleaved and FRET is inhibited. […] The amount of β-arrestin recruitment is proportional to the increase in blue fluorescence.
Tango™-EDG1 bla U2OS cells are cultivated in McCoy's 5A containing 10% dialyzed FBS, 0.1 mM NEAA, 25 mM HEPES, 1 mM sodium pyruvate, 1% Penicillin/Streptomycin, 200 μg/ml zeocin, 50 μg/ml hygromycin and 100 μg/ml geneticin (Invitrogen, USA). Cells are detached with trypsin, resuspended in medium and then counted.
Compounds (10 mM stock in DMSO) are diluted first in DMSO. The pre-diluted compounds solutions are then transferred into Assay Medium/0.1% fatty acid free BSA to reach a fourfold concentrated compound stock, which is applied to the cells to reach the final compound concentrations that range from 10 μM to 0.0005 nM (0.5% final DMSO). Cells are then incubated for 16 h at 37° C. and 5% CO2.
(In general: Recruitment of arrestin is a read-out of receptor activation apart from second messengers.)

The test system of the next assay is circulating lymphocytes. The experiment in a line: Assessment of in vivo efficacy: circulating lymphocytes after oral administration to Wistar rats. Details: species or system rat. The settings on record: Rattus norvegicus, Lymphocyte; 6 h after oral administration of 10 mg/kg, normotensive male Wistar rats, compared to vehicle group; read-out: Lymphocyte counts. As to the method:
Assessment of In Vivo Efficacy
The efficacy of the compounds of Formula (I) is assessed by measuring the circulating lymphocytes after oral administration of 3 to 30 mg/kg of a compound of Formula (I) to normotensive male Wistar rats. The animals are housed in climate-controlled conditions with a 12 h-light/dark cycle, and have free access to normal rat chow and drinking water. […] Full blood is subjected to hematology using Advia Hematology system (Bayer Diagnostics, Zurich, Switzerland).
All data are presented as mean±SEM. Statistical analyses are performed by analysis of variance (ANOVA) using Statistica (StatSoft) and the Student-Newman-Keuls procedure for multiple comparisons. The null hypothesis is rejected when p<0.05.

Structures are written as SMILES.

The source of these data is US9133179B2, “2-methoxy-pyridin-4-yl-derivatives” (Actelion Pharmaceuticals Ltd., priority 2011, dated 2015).

T1 sequence (P21453 whole entry): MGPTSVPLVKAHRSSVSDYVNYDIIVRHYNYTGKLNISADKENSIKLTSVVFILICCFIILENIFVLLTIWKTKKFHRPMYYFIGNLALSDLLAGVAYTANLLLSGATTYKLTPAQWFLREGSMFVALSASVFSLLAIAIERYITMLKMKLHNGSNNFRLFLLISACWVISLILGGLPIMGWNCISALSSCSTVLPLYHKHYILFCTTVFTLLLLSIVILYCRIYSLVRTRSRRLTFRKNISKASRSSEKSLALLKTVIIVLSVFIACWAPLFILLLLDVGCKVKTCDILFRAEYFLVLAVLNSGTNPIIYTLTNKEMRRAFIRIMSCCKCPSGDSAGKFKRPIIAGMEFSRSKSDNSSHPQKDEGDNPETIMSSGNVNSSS

Take `COc1cc(-c2nc(-c3cc(C)c(OCCN4CC(C(=O)O)C4)c(Cl)c3)no2)cc(C2CCCC2)n1` [Example 44, 1-(2-(2-Chloro-4-(5-(2-cyclopentyl-6-methoxypyridin-4-yl)-1,2,4-oxadiazol-3-yl)-6-methylphenoxy)ethyl)azetidine-3-carboxylic acid]: the EC50 in assay [1] was found to be 100 pM. In the assay on circulating lymphocytes, the change in vivo at 10 mg/kg is -62%.

`COc1cc(-c2nc(-c3cc(C)c(OCCCC(=O)O)c(Cl)c3)no2)cc(C2CCCC2)n1` [Example 40, 4-(2-Chloro-4-(5-(2-cyclopentyl-6-methoxypyridin-4-yl)-1,2,4-oxadiazol-3-yl)-6-methylphenoxy)butanoic acid] showed an EC50 in assay [1] of 50 pM. Also, the change in vivo at 10 mg/kg in the assay with circulating lymphocytes was -65%.

The compound `COc1cc(-c2nc(-c3cc(Cl)c(OCCN4CC(C(=O)O)C4)c(OC)c3)no2)cc(C2CCCC2)n1` [Example 52, 1-(2-(2-Chloro-4-(5-(2-cyclopentyl-6-methoxypyridin-4-yl)-1,2,4-oxadiazol-3-yl)-6-methoxyphenoxy)ethyl)azetidine-3-carboxylic acid] yielded an EC50 in assay [1] of 600 pM. For the same compound, the change in vivo at 10 mg/kg with circulating lymphocytes is -71%.

In assay [1], `CCc1cc(-c2nnc(-c3cc(OC)nc(C4CCCC4)c3)o2)cc(C)c1OCC(=O)O` [Example 60, 2-(4-(5-(2-Cyclopentyl-6-methoxypyridin-4-yl)-1,3,4-oxadiazol-2-yl)-2-ethyl-6-methylphenoxy)acetic acid] registered an EC50 of 7200 pM. In addition, in the assay on circulating lymphocytes, the change in vivo at 10 mg/kg was -35%.

In assay [1], `CCc1cc(-c2noc(-c3cc(OC)nc(C4CCCC4)c3)n2)cc(C)c1OCCN(C)CC(=O)O` [Example 16, 2-((2-(4-(5-(2-Cyclopentyl-6-methoxypyridin-4-yl)-1,2,4-oxadiazol-3-yl)-2-ethyl-6-methylphenoxy)ethyl)(methyl)amino)acetic acid] came in with an EC50 of 200 pM. Moreover, the change in vivo at 10 mg/kg with circulating lymphocytes was -75%.

In assay [1], `CCc1cc(-c2noc(-c3cc(OC)nc(C4CCCC4)c3)n2)cc(C)c1OCCCN(C)CCC(=O)O` [Example 21, 3-((3-(4-(5-(2-Cyclopentyl-6-methoxypyridin-4-yl)-1,2,4-oxadiazol-3-yl)-2-ethyl-6-methylphenoxy)propyl)(methyl)amino)propanoic acid] had an EC50 of 659 pM. Moreover, the change in vivo at 10 mg/kg in the assay on circulating lymphocytes was -74%.

The compound `CCc1cc(-c2nnc(-c3cc(OC)nc(C4CCCC4)c3)o2)cc(C)c1OCCCC(=O)O` [Example 61, 4-(4-(5-(2-Cyclopentyl-6-methoxypyridin-4-yl)-1,3,4-oxadiazol-2-yl)-2-ethyl-6-methylphenoxy)butanoic acid] returned an EC50 in assay [1] of 100 pM. In the assay with circulating lymphocytes, the change in vivo at 10 mg/kg is -27%.

`CCc1cc(-c2noc(-c3cc(OC)nc(C4CCCC4)c3)n2)cc(C)c1OC[C@@H](O)CNCC(=O)O` [Example 9, (S)-2-((3-(4-(5-(2-Cyclopentyl-6-methoxypyridin-4-yl)-1,2,4-oxadiazol-3-yl)-2-ethyl-6-methylphenoxy)-2-hydroxypropyl)amino)acetic acid] yielded an EC50 in assay [1] of 70 pM. Moreover, the change in vivo at 10 mg/kg with circulating lymphocytes was -72%.

In assay [1], `CCc1cc(-c2nc(-c3cc(OC)nc(C4CCCC4)c3)no2)cc(C)c1OCCNCC(=O)O` [Example 55, 2-((2-(4-(3-(2-Cyclopentyl-6-methoxypyridin-4-yl)-1,2,4-oxadiazol-5-yl)-2-ethyl-6-methylphenoxy)ethyl)amino)acetic acid] came in with an EC50 of 100 pM. For the same compound, in the assay with circulating lymphocytes, the change in vivo at 10 mg/kg was -72%.

In assay [1], `CCc1cc(-c2noc(-c3cc(OC)nc(C4CCCC4)c3)n2)cc(C)c1OC[C@@H](O)CN(C)CC(=O)O` [Example 11, (S)-2-((3-(4-(5-(2-Cyclopentyl-6-methoxypyridin-4-yl)-1,2,4-oxadiazol-3-yl)-2-ethyl-6-methylphenoxy)-2-hydroxypropyl)(methyl)amino)acetic acid] showed a concentration for a half-maximal effect (EC50) of 200 pM. Moreover, the change in vivo at 10 mg/kg with circulating lymphocytes was -60%.

The EC50 is the midpoint of the concentration-response curve.
